conditions: buffer

SMILES | Log S
Cc1ccc(O)cc1 [p-CRESOL] | -0.73
COC(=O)[C@@H]1C2CC[C@@H](C[C@@H]1OC(=O)c1ccccc1)N2C (single isomer, unassigned) [COCAINE] | -2.25
c1ccc2ncccc2c1 [QUINOLINE] | -1.3
CCOC(=O)NCCOc1ccc(Oc2ccccc2)cc1 [PHENOXYCARB] | -4.7
C=C(C)C1CC=C(C)C(=O)C1 (centres undefined) [CARVONE] | -2.06
Oc1cccc(Cl)c1Cl | -1.3
O=C1Nc2ccc(Cl)cc2C(c2ccccc2Cl)=NC1O (centres undefined) [LORAZEPAM] | -3.6
CC/C(=C(/CC)c1ccc(O)cc1)c1ccc(O)cc1 [DIETHYLSTILBESTROL] | -4.07
Nc1ccccc1 [ANILINE] | -0.41
c1ccc2[nH]ccc2c1 [INDOLE] | -1.21
C1COCCN1 [MORPHOLINE] | 1.97
O=C(O)Cc1ccccc1Oc1ccc(Cl)cc1Cl [FENCLOFENAC] | -3.85
COC1=CC(=O)C[C@@H](C)[C@]12Oc1c(Cl)c(OC)cc(OC)c1C2=O [GRISEOFULVIN] | -4.07
c1ccc(-c2ccccc2)cc1 [BIPHENYL] | -4.35
COc1ccccc1 [ANISOLE] | -1.85
Clc1c(Cl)c(Cl)c(-c2ccccc2)c(Cl)c1Cl | -7.78
O=C(O)c1ccccc1 [BENZOIC ACID] | -1.55
O=[N+]([O-])c1ccccc1 [NITROBENZENE] | -1.8
CN(C)CCCN1c2ccccc2Sc2ccc(Cl)cc21 [CHLORPROMAZINE] | -5.1
O=C1CN(/N=C/c2ccc([N+](=O)[O-])o2)C(=O)N1 [NITROFURANTOIN] | -3.38
O=C(O)c1ccccc1O [SALICYLIC ACID] | -1.82
CC(=O)CC(c1ccccc1)c1c(O)c2ccccc2oc1=O (centres undefined) [WARFARIN] | -4.26
Cc1ccccc1 [TOLUENE] | -2.21
c1ccc2c(c1)oc1ccccc12 [DIBENZOFURAN] | -4.6
NC(=O)c1ccccc1 [BENZAMIDE] | -0.96
CCCO [PROPANOL] | 0.62
CCCCCC [HEXANE] | -3.84
CCO [ALCOHOL] | 1.1
COC(C)=O [ACETIC ACID METHYL ESTER] | 0.46
